Assay results: US20230243002A1, “ASSAY OT DETECT VIRUS” (priority 2020, published 2023)

What was measured:
[1] = system: luminescence output of luciferase; experiment: Compounds and reagents that inhibit or interfere with the ID-Oligo luminescence methods; type: biochemical
Text: Various compounds and components may interfere with the methods described herein. […] Thus, in some embodiments, the sample is free of compounds and components that inhibit the luminescence output of luciferase. Accordingly, the sample may be free of sodium-azide, sodium-citrate, heparin, EDTA, EGTA, proteases, phosphates, 2,2′-azino-di-(3-ethylbenzothiazoline)-6-sulfonic acid (ABTS), and/or butylated hydroxytoluene (BHT). In various related aspects, the present application also relates to devices and kits for performing the methods described herein. Such kits contain monitors, reagents and procedures that can be utilized in a clinical or research setting or adapted for either the field laboratory or on-site use. In particular, kits comprising the disclosed reagents used in practicing the methods described herein include any of a number of means for detecting the captured target nucleic acid molecule and measuring the bioluminescent signal produced subsequent to target capture, along with appropriate instructions, are contemplated. Suitable kits comprise reagents sufficient for performing an assay, or one or more independent steps of an assay, to detect a target nucleic acid molecule, as described herein above.

[2] = system: coupled ATPS-luciferase reaction; conditions: 0.04% Na-Azide, LU measured for 200 seconds
[3] = system: SARS-CoV-2, USA-WA1/2020 RNA; experiment: ID-Oligos assay signal output with dC/T/G only or supplemented with dATPαS; type: biochemical; conditions: supplemented with 0.1 mM dATPαS versus only dT/G/C
luciferase = luciferase (Photinus pyralis, UniProt P08659); experiment: Background LU of reaction with only luciferase and no viral RNA, dATP versus dATPαS; type: biochemical
Sequence of luciferase (P08659 whole entry): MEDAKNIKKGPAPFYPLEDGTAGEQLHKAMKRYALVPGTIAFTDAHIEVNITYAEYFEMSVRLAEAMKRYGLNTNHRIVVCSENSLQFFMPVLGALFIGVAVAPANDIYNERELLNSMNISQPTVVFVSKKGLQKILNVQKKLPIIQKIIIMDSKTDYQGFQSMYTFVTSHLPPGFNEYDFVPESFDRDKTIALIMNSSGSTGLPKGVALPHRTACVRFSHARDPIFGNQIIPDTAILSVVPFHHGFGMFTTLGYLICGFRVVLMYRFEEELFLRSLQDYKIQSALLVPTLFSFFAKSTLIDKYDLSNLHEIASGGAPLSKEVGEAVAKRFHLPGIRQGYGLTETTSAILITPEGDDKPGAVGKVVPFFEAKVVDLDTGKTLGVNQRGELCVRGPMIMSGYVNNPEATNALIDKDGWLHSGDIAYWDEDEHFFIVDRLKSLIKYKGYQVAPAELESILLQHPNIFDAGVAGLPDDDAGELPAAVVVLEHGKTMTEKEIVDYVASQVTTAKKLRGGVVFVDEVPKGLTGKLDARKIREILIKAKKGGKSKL

CCn1c(=NN=c2sc3cc(S(=O)(=O)O)ccc3n2CC)sc2cc(S(=O)(=O)O)ccc21 [ABTS, 2,2′-azino-di-(3-ethylbenzothiazoline)-6-sulfonic acid]
inhibit or interfere with the methods described herein [1]: inhibit or interfere

Cc1cc(C(C)(C)C)c(O)c(C(C)(C)C)c1 [BHT, butylated hydroxytoluene]
inhibit or interfere with the methods described herein [1]: inhibit or interfere

O=C(O)CN(CCN(CC(=O)O)CC(=O)O)CC(=O)O [EDTA]
inhibit or interfere with the methods described herein [1]: inhibit or interfere

O=C(O)CN(CCOCCOCCN(CC(=O)O)CC(=O)O)CC(=O)O [EGTA]
inhibit or interfere with the methods described herein [1]: inhibit or interfere

[N-]=[N+]=[N-].[Na+] [Na-azide]
effect on the luminescence output of the coupled ATPS-luciferase reaction [2]: inhibitory effect | inhibit or interfere with the methods described herein [1]: inhibit or interfere

O=C([O-])CC(O)(CC(=O)[O-])C(=O)[O-].[Na+].[Na+].[Na+] [Na-citrate]
inhibit or interfere with the methods described herein [1]: inhibit or interfere

Nc1ncnc2c1ncn2[C@H]1C[C@H](O)[C@@H](COP(O)(=S)OP(=O)(O)OP(=O)(O)O)O1 (some centres unmarked) [dATPαS]
reaction slope [3]: Higher slope values | improved signal-to-noise ratio (luciferase): ~2 orders of magnitude | LU background (luciferase; 0.1 mM/1 mM, luciferase only, no viral RNA): reduction

heparin
inhibit or interfere with the methods described herein [1]: inhibit or interfere
